Active and inactive are the calls of the source. The calls are words filed in the database; no cut-off is given here.
What was measured:
Staphylococcus aureus [1] = assay: Antibacterial activity against methicillin-resistant Staphylococcus aureus ATCC 33591 assessed as inhibition of bacterial growth incubated for 24 hrs by broth microdilution method; assay type: functional
Staphylococcus aureus [2] = assay: Antibacterial activity against methicillin-resistant Staphylococcus aureus ATCC 43300 assessed as inhibition of bacterial growth incubated for 24 hrs by broth microdilution method; assay type: functional
[3] = tested on: Staphylococcus epidermidis; assay: Antibacterial activity against methicillin-resistant Staphylococcus epidermidis ATCC 51625 assessed as inhibition of bacterial growth incubated for 24 hrs by broth microdilution method; assay type: functional
Acinetobacter baumannii = assay: Antibacterial activity against Acinetobacter baumannii ATCC 19606 assessed as inhibition of bacterial growth incubated for 24 hrs by broth microdilution method; assay type: functional
Salmonella enterica = assay: Antibacterial activity against Salmonella enterica ATCC 14028 assessed as inhibition of bacterial growth incubated for 24 hrs by broth microdilution method; assay type: functional
Escherichia coli [4] = assay: Antibacterial activity against Escherichia coli CMCC 44103 assessed as inhibition of bacterial growth incubated for 24 hrs by broth microdilution method; assay type: functional
Staphylococcus aureus [5] = assay: Antibacterial activity against methicillin-resistant Staphylococcus aureus 171 assessed as inhibition of bacterial growth incubated for 24 hrs by broth microdilution method; assay type: functional
Staphylococcus aureus [6] = assay: Antibacterial activity against methicillin-resistant Staphylococcus aureus 206 assessed as inhibition of bacterial growth incubated for 24 hrs by broth microdilution method; assay type: functional
Staphylococcus aureus [7] = assay: Antibacterial activity against methicillin-resistant Staphylococcus aureus 222 assessed as inhibition of bacterial growth incubated for 24 hrs by broth microdilution method; assay type: functional
Klebsiella pneumoniae = assay: Antibacterial activity against multidrug-resistant Klebsiella pneumoniae 893 assessed as inhibition of bacterial growth incubated for 24 hrs by broth microdilution method; assay type: functional
[8] = Cytotoxicity against human HEK293 cells assessed as reduction in cell viability incubated for 24 hrs by CCK8 assay; assay type: toxicity, cell-based
[9] = tested on: Mesomycoplasma hyopneumoniae; assay: Anti-mycoplasma activity against Mycoplasma hyopneumoniae MH-LH assessed as inhibition of bacterial growth incubated for 6 to 7 days by broth microdilution method; assay type: functional; settings: time 6-7 day
Staphylococcus aureus [10] = assay: Antibacterial activity against methicillin-resistant Staphylococcus aureus ATCC33591 assessed as post-antibiotic effect at 0.25 ug/ml incubated for 1 hr followed by washing and incubation in MHB medium for 10 hrs and later cultured on agar plate for overnight; assay type: functional; settings: dose 0.25 µg/ml
Cell membrane [11] = assay: Disruption of cell membrane in methicillin-resistant Staphylococcus aureus ATCC33591 assessed as induction of cell death by measuring increase in propidium iodide fluorescence intensity at 0.5 ug/ml incubated for 2 hrs by bright field microscopy; assay type: subcellular; settings: dose 0.5 µg/ml
Cell membrane [12] = assay: Disruption of cell membrane in methicillin-resistant Staphylococcus aureus ATCC33591 assessed as induction of cell death by measuring increase in propidium iodide fluorescence intensity at 0.5 ug/ml incubated for 2 hrs by fluorescence field microscopy; assay type: subcellular; settings: dose 0.5 µg/ml
Cell membrane [13] = assay: Disruption of cell membrane in Escherichia coli ATCC25922 assessed as induction of cell death by measuring increase in propidium iodide fluorescence intensity at 0.5 ug/ml incubated for 2 hrs by bright field microscopy; assay type: subcellular; settings: dose 0.5 µg/ml
Cell membrane [14] = assay: Disruption of cell membrane in methicillin-resistant Staphylococcus aureus ATCC33591 assessed as increase in extracellular ATP content at 0.125 to 0.25 ug/ml incubated for 30 mins by luminescence based analysis; settings: dose 0.125-0.25 µg/ml
Cell membrane [15] = assay: Disruption of cell membrane in methicillin-resistant Staphylococcus aureus ATCC33591 assessed as decrease in intracellular pH at 0.125 ug/ml incubated for 30 mins by cFDA-SE probe based fluorescence analysis; settings: dose 0.125 µg/ml
Cell membrane [16] = assay: Disruption of cell membrane in methicillin-resistant Staphylococcus aureus ATCC33591 assessed as dissipation of membrane potential at 0.125 to 0.5 ug/ml incubated for 30 mins by DiBAC4(3) probe based fluorescence spectrophotometry; settings: dose 0.125-0.5 µg/ml
Cell membrane [17] = assay: Disruption of cell membrane in methicillin-resistant Staphylococcus aureus ATCC33591 assessed as leakage of bacterial cell contents by measuring increase in conductivity of bacterial solution at MIC measured for 6 hrs by conductivity meter analysis
Staphylococcus aureus [18] = assay: Antibacterial activity against methicillin-resistant Staphylococcus aureus ATCC33591 infected in systemic intraperitoneal infection Kunming mouse model assessed as increase in animal's survival rate at 20 mg/kg, ip treated at 1 hr post-infection and measured for 7 days; assay type: functional, organism-based; settings: time 7.0 day
[19] = biological target: T1, Solute carrier family 22 member 2 (Homo sapiens, UniProt O15244); assay: Substrate activity at human OCT2 transfected in HEK293 cells assessed as increase in intracellular drug content at 100 uM measured after 5 mins; assay type: ADME, cell-based; settings: hek293, 5 min
T1 sequence (O15244 whole entry): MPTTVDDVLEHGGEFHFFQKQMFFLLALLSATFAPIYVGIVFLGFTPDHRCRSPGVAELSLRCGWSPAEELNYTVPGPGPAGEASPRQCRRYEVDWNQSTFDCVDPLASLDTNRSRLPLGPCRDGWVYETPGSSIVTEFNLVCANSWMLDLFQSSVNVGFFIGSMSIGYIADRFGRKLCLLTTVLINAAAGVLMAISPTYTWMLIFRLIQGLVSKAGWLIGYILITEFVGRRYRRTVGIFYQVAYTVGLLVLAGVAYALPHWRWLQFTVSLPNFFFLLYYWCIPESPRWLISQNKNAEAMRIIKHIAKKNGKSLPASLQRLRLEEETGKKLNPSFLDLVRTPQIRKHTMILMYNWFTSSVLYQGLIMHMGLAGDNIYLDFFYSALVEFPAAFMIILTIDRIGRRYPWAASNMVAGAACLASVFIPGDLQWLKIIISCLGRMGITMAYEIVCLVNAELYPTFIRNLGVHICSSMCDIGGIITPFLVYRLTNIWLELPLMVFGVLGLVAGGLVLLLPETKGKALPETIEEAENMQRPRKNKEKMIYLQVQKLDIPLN

[20] = Observed AUC (0 to infinity) in Sprague-Dawley rat at 5 mg/kg, iv; assay type: ADME, organism-based; settings: in vivo
[21] = Observed clearance in Sprague-Dawley rat at 5 mg/kg, iv; assay type: ADME, organism-based; settings: in vivo
[22] = Cmax in Sprague-Dawley rat at 10 mg/kg, po; assay type: ADME, organism-based; settings: in vivo
[23] = Half-life in Sprague-Dawley rat at 10 mg/kg, po; assay type: ADME, organism-based; settings: in vivo
[24] = Observed apparent oral clearance in Sprague-Dawley rat at 10 mg/kg, po; assay type: ADME, organism-based; settings: in vivo
[25] = Drug uptake in Sprague-Dawley rat liver at 5 mg/kg, iv measured for 6 hrs by LC-MS/MS analysis; assay type: ADME, organism-based; settings: in vivo
Escherichia coli [26] = assay: Antibacterial activity against Escherichia coli ATCC25922 infected in pyelonephritis C57BL/6 mouse model assessed as saturated bacterial clearance at >=5 mg/kg, iv qd for 3 days administered at 2 days post-infection; assay type: functional, organism-based; settings: time 3.0 day
Escherichia coli [27] = assay: Antibacterial activity against Escherichia coli ATCC25922 infected in pyelonephritis C57BL/6 mouse model assessed as recovery of white blood cells count in blood at 3 to 10 mg/kg, iv qd for 3 days administered at 2 days post-infection; assay type: functional, organism-based; settings: dose 3-10 mg/kg, time 3.0 day

## C=C[C@]1(C)C[C@@H](OC(=O)CSc2nc3cc[n+](Cc4ccc(C)cc4)cc3[nH]2)[C@]2(C)[C@H](C)CC[C@]3(CCC(=O)[C@H]32)[C@@H](C)[C@@H]1O.[Br-]
Staphylococcus aureus [1]
  MIC: < 1 µg/mL
Staphylococcus aureus [2]
  MIC: < 1 µg/mL
[3]
  MIC: < 1 µg/mL
Acinetobacter baumannii
  MIC: < 1 µg/mL
Salmonella enterica
  MIC: < 1 µg/mL
Escherichia coli [4]
  MIC: < 1 µg/mL
Staphylococcus aureus [5]
  MIC: 4 µg/mL
Staphylococcus aureus [6]
  MIC: 1 µg/mL
Staphylococcus aureus [7]
  MIC: 4 µg/mL
Klebsiella pneumoniae
  MIC: 2 µg/mL
[8]
  CC50 at 24 h: 96.4 µM
[9]
  MIC: < 0.04 µg/mL
Staphylococcus aureus [10]
  PAE: 1.53 h
Cell membrane [11]
  Activity: Active
Cell membrane [12]
  Activity: Active
Cell membrane [13]
  Activity: Active
Cell membrane [14]
  Activity: Active
Cell membrane [15]
  Activity: Active
Cell membrane [16]
  Activity: Active
Cell membrane [17]
  Activity: Active
Staphylococcus aureus [18]
  Activity: Active; Slight Decrease In Activity Compared To Lower Dose Of Drug Concentration Observed; Diminished Therapeutic Effects To Drug At Higher Concentrations Observed
[19]
  Activity: Active
[20]
  AUC(0-inf): 16500 ng·h/mL
[21]
  clearance: 5.04 mL/min/kg
[22]
  Cmax: 6210 ng/mL
[23]
  half-life: 1.57 h
[24]
  CL/F: 10.5 mL/min/kg
[25]
  Drug uptake: Active
Escherichia coli [26]
  Activity: Active
Escherichia coli [27]
  Activity: Active

Source: ChEMBL document CHEMBL6096719, “Kidney Targeting Smart Antibiotic Discovery: Multimechanism Pleuromutilins for Pyelonephritis Therapy” (J Med Chem, 2025)
